Measurements as given in BindingDB's records for doi:10.1016/s0014-2999(02)01314-6 (Takeda Chemical Industries, 2002).

Biological target: Melanin-concentrating hormone receptor 1 (Rattus norvegicus, UniProt P97639)
Sequence (P97639 whole entry): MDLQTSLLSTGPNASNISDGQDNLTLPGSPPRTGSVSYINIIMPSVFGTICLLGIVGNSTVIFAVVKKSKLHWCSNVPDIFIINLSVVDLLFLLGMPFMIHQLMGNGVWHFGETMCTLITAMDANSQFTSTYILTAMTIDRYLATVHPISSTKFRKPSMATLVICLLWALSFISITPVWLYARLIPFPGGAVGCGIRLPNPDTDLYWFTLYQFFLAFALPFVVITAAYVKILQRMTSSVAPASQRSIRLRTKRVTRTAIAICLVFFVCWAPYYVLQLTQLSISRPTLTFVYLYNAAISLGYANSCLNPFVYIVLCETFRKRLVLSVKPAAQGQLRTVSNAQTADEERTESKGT

Ki: 8.6 nM
SMILES: CN(C)CC1CCc2cc(NC(=O)c3ccc(-c4ccc(F)cc4)cc3)ccc2C1 (stereo unspecified) [4''-Fluoro-biphenyl-4-carboxylic acid (6-dimethylaminomethyl-5,6,7,8-tetrahydro-naphthalen-2-yl)-amide]
